ChEMBL document CHEMBL1201862, “PubChem BioAssay data set” (2004)
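A five-concentration, 48-hour dose response in 96-well plates underlies each endpoint, interpolated linearly between surrounding concentrations. GI50 = concentration required for 50% inhibition of growth.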 Calls of active or inactive are those of the source. Rule as the data show it: active = GI50 up to about 1.1 µM and inactive = higher.

Legend:
Test in all cases: growth of human tumour cells (NCI), 48 h
BT-549 = tested on: BT-549
HCT-116 = tested on: HCT-116
HCT-15 = tested on: HCT-15
Hs-578T = tested on: Hs-578T
KM12 = tested on: KM12
MDA-MB-231 = tested on: MDA-MB-231
MOLT-4 = tested on: MOLT-4
NCI-H226 = tested on: NCI-H226
NCI-H23 = tested on: NCI-H23
NCI/ADR-RES = tested on: NCI/ADR-RES
SF-268 = tested on: SF-268
SF-295 = tested on: SF-295
SF-539 = tested on: SF-539
SK-MEL-5 = tested on: SK-MEL-5
SN12C = tested on: SN12C
SR = tested on: SR
M14 = tested on: M14
SNB-75 = tested on: SNB-75
OVCAR-4 = tested on: OVCAR-4

SMILES	GI50 (BT-549)	GI50 (HCT-116)	GI50 (HCT-15) [µM]	GI50 (Hs-578T)	GI50 (KM12)	GI50 (MDA-MB-231)	GI50 (MOLT-4)	GI50 (NCI-H226)	GI50 (NCI-H23)	GI50 (NCI/ADR-RES)	GI50 (SF-268)	GI50 (SF-295)	GI50 (SF-539)	GI50 (SK-MEL-5)	GI50 (SN12C)	GI50 (SR)	GI50 (M14)	GI50 (SNB-75)	GI50 (OVCAR-4)
COc1cc(C2c3cc4c(cc3OC(C)(O)C2C)OCO4)cc(OC)c1OC (stereo unspecified)	5.42 µM (inactive)	0.333 µM (active)	0.4	0.449 µM (active)	0.697 µM (active)	0.433 µM (active)	0.513 µM (active)	1.31 µM (inactive)	0.745 µM (active)	0.316 µM (active)	2.69 µM (inactive)	0.304 µM (active)	0.277 µM (active)	0.154 µM (active)	0.505 µM (active)	0.379 µM (active)	–	–	–
Nc1ncnc2c1ncn2[C@@H]1C[C@H]1CO	> 10 µM (inactive)	> 100 µM (inactive)	> 100	> 100 µM (inactive)	> 100 µM (inactive)	> 100 µM (inactive)	> 100 µM (inactive)	> 100 µM (inactive)	> 100 µM (inactive)	> 100 µM (inactive)	–	> 100 µM (inactive)	> 100 µM (inactive)	–	> 100 µM (inactive)	> 100 µM (inactive)	> 100 µM (inactive)	–	–
C=C(C)C(=O)O[C@H]1C/C(CO)=C/CCC(=C)C(OC(C)=O)[C@H]2OC(=O)C(=C)[C@H]12 (stereo partly specified)	4.41 µM (inactive)	3.78 µM (inactive)	2.3	12.2 µM (inactive)	14.7 µM (inactive)	11.1 µM (inactive)	1.96 µM (inactive)	40.8 µM (inactive)	10.3 µM (inactive)	4.7 µM (inactive)	2 µM (inactive)	23.7 µM (inactive)	13.6 µM (inactive)	14.7 µM (inactive)	13.4 µM (inactive)	3.51 µM (inactive)	3.49 µM (inactive)	2.35 µM (inactive)	–
CC1(C)CN=C(c2ccc3ccccc3c2O)N1	> 100 µM (inactive)	> 100 µM (inactive)	> 100	> 100 µM (inactive)	> 100 µM (inactive)	> 100 µM (inactive)	> 100 µM (inactive)	–	> 100 µM (inactive)	> 100 µM (inactive)	> 100 µM (inactive)	2.27 µM (inactive)	> 100 µM (inactive)	> 100 µM (inactive)	> 100 µM (inactive)	> 100 µM (inactive)	> 100 µM (inactive)	> 100 µM (inactive)	> 100 µM (inactive)
C1CCSCCCCSCCCCSCCCCSC1	> 100 µM (inactive)	> 100 µM (inactive)	> 100	> 100 µM (inactive)	> 100 µM (inactive)	> 100 µM (inactive)	–	> 100 µM (inactive)	> 100 µM (inactive)	> 100 µM (inactive)	> 100 µM (inactive)	> 100 µM (inactive)	> 100 µM (inactive)	> 100 µM (inactive)	> 100 µM (inactive)	–	> 100 µM (inactive)	64 µM (inactive)	> 100 µM (inactive)
O=C1/C(=C/c2cc3c(=O)c4ccccc4sc3s2)NC(=S)N1c1ccccc1	51.8 µM (inactive)	40.4 µM (inactive)	> 100	> 100 µM (inactive)	> 100 µM (inactive)	89.9 µM (inactive)	24.5 µM (inactive)	> 100 µM (inactive)	> 100 µM (inactive)	> 100 µM (inactive)	55 µM (inactive)	66.4 µM (inactive)	–	91.2 µM (inactive)	> 100 µM (inactive)	12.8 µM (inactive)	–	5.11 µM (inactive)	> 100 µM (inactive)
Cc1csc2nc(-c3cccc([N+](=O)[O-])c3)c(/C=N/N=C(N)N)n12	1.1 µM (active)	1.7 µM (inactive)	1.71	2.18 µM (inactive)	1.68 µM (inactive)	1.55 µM (inactive)	–	1.64 µM (inactive)	1.71 µM (inactive)	6.27 µM (inactive)	1.82 µM (inactive)	1.69 µM (inactive)	2.29 µM (inactive)	1.55 µM (inactive)	1.69 µM (inactive)	–	1.71 µM (inactive)	1.75 µM (inactive)	1.78 µM (inactive)
CCN(C)c1nc(N(C)CC)c2nc(N(C)CC)nc(N(C)CC)c2n1	> 100 µM (inactive)	> 100 µM (inactive)	> 100	> 100 µM (inactive)	> 100 µM (inactive)	> 100 µM (inactive)	> 100 µM (inactive)	–	> 100 µM (inactive)	> 100 µM (inactive)	> 100 µM (inactive)	> 100 µM (inactive)	> 100 µM (inactive)	> 100 µM (inactive)	> 100 µM (inactive)	26.5 µM (inactive)	> 100 µM (inactive)	> 100 µM (inactive)	> 100 µM (inactive)
